Target: T1, CFTR (Homo sapiens, UniProt P13569, DEL508-508)
T1 construct: Primary CF airway epithelial cells were obtained from the UNC Cystic Fibrosis Tissue Procurement and Cell Culture Core; host or cells: primary CF airway epithelial cells
Assay: Equivalent current assay in Primary CF airway epithelial cells (NAUC)
Format: cell-based
Details: 24 h, normalized to VX809 (3 μM) positive control; for Nauc @ 3 μM: 3 μM test compound; for Nauc @ 10 μM: 10 μM test compound
In short: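 Primary CF airway epithelia differentiated ≥4 weeks at air-liquid interface, treated basolaterally 24 h at 37 °C with test compounds in combination with VX809, 0.1% DMSO vehicle. Equivalent current recorded after 5 μM benzamil, 10 μM forskolin plus 1 μM VX770, then CFTR-172/bumetanide 20 μM; vehicle-subtracted AUC normalized to 3 μM VX809 (NAUC), median of n≥4, sigmoid fit for EC50.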

T1 sequence (P13569 with tags, fused parts or gaps DEL508-508): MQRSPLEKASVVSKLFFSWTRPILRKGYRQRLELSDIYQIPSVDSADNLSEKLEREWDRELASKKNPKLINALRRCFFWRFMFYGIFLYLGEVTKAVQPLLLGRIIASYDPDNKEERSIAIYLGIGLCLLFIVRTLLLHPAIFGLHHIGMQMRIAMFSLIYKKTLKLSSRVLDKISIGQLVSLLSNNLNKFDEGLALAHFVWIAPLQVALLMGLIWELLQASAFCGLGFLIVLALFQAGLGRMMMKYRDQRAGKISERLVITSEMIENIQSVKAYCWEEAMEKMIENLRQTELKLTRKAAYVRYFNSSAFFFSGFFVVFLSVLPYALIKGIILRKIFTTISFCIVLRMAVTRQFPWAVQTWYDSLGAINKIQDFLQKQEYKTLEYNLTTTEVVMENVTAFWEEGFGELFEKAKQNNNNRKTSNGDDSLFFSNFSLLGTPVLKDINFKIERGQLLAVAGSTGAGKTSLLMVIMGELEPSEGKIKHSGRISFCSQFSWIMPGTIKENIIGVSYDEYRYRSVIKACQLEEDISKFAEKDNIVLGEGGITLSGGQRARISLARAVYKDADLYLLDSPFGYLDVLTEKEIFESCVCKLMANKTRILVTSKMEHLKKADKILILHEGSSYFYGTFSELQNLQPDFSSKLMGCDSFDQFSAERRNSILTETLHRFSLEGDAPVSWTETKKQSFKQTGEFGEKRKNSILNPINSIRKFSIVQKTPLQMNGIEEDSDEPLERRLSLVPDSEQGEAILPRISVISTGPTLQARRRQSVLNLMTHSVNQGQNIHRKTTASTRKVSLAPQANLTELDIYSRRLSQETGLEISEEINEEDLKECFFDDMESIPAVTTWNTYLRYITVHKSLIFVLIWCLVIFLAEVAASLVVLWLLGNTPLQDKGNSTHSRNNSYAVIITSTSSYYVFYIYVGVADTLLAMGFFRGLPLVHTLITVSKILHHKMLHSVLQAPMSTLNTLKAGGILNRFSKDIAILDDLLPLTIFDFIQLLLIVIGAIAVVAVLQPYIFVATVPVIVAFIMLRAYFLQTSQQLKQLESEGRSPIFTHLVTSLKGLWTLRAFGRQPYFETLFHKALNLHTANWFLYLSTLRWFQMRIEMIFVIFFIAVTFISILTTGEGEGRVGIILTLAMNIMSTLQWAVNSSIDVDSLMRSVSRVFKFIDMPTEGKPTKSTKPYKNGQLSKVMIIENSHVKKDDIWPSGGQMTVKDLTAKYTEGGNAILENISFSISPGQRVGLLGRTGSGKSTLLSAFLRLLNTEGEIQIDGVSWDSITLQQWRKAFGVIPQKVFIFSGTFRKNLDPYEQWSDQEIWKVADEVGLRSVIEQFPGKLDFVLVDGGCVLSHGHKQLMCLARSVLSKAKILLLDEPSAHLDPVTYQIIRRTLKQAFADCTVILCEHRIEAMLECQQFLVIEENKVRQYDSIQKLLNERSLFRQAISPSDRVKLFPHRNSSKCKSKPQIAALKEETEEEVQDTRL

SMILES | Nauc @ 3 μM | Nauc @ 10 μM
O=C1C2C(Cc3ccccc3O)NC3(C(=O)Nc4c(Cl)cc(Cl)cc43)C2C(=O)N1c1cc(Cl)cc(Cl)c1 (stereo not shown) [Example 188] | + (NAUC “+” refers to an observed NAUC <140% of positive control) | +++ (NAUC “+++” refers to an observed NAUC >170% of positive control)
O=C1C2C3CCCN3C3(C(=O)Nc4ccc(Cl)cc43)C2C(=O)N1c1cc(Cl)cc(Cl)c1 (stereo not shown) [Example 85] | ++ (NAUC “++” refers to an observed NAUC 170-140% of positive control) | +++ (NAUC “+++” refers to an observed NAUC >170% of positive control)
Cc1ccc2c(c1)C1(C(=O)N2)C2C(=O)N(c3cc(Cl)cc(Cl)c3)C(=O)C2C2CCCN21 (stereo not shown) [Example 47] | ++ (NAUC “++” refers to an observed NAUC 170-140% of positive control) | ++ (NAUC “++” refers to an observed NAUC 170-140% of positive control)
O=C1C2C3C[C@H](F)CN3C3(C(=O)Nc4c(Cl)cc(Cl)cc43)C2C(=O)N1c1cc(Cl)cc(Cl)c1 (single isomer, unassigned) [Example 243] | +++ (NAUC “+++” refers to an observed NAUC >170% of positive control) | +++ (NAUC “+++” refers to an observed NAUC >170% of positive control)
O=C1C2C3CCCN3C3(C(=O)Nc4c(Cl)cc(Cl)cc43)C2C(=O)N1c1cc(Cl)cc(Br)c1 (stereo not shown) [Example 35] | + (NAUC “+” refers to an observed NAUC <140% of positive control) | +++ (NAUC “+++” refers to an observed NAUC >170% of positive control)
O=C1C2C3CCCN3C3(C(=O)Nc4c(Cl)cc(Cl)cc43)C2C(=O)N1c1cc(F)cc(Cl)c1 (stereo not shown) [Example 28] | ++ (NAUC “++” refers to an observed NAUC 170-140% of positive control) | +++ (NAUC “+++” refers to an observed NAUC >170% of positive control)
O=C1C2C3CCCN3C3(C(=O)Nc4c(Cl)cc(Cl)cc43)C2C(=O)N1c1cc(C(F)(F)F)cc(C(F)(F)F)c1 (stereo not shown) [Example 16] | +++ (NAUC “+++” refers to an observed NAUC >170% of positive control) | +++ (NAUC “+++” refers to an observed NAUC >170% of positive control)
COc1cc(Cl)cc(N2C(=O)C3C4C[C@](C)(F)CN4C4(C(=O)Nc5c(Cl)cc(Cl)cc54)C3C2=O)c1 (stereo partly shown) [Example 160] | + (NAUC “+” refers to an observed NAUC <140% of positive control) | ++ (NAUC “++” refers to an observed NAUC 170-140% of positive control)
O=C1C2C3C[C@H](O)CN3C3(C(=O)Nc4c(Br)cc(Br)cc43)C2C(=O)N1c1cc(Cl)cc(Cl)c1 (single isomer, unassigned) [Example 51] | +++ (NAUC “+++” refers to an observed NAUC >170% of positive control) | ++ (NAUC “++” refers to an observed NAUC 170-140% of positive control)
O=C1C2C3CCCN3C3(C(=O)Nc4c(Cl)cc(Cl)cc43)C2C(=O)N1c1cc(F)cc(F)c1 (stereo not shown) [Example 21] | ++ (NAUC “++” refers to an observed NAUC 170-140% of positive control) | ++ (NAUC “++” refers to an observed NAUC 170-140% of positive control)
CC1(C)CC2C3C(=O)N(c4cc(Cl)cc(Cl)n4)C(=O)C3C3(C(=O)Nc4c(Cl)cc(Cl)cc43)N2C1 (stereo not shown) [Example 176] | ++ (NAUC “++” refers to an observed NAUC 170-140% of positive control) | ++ (NAUC “++” refers to an observed NAUC 170-140% of positive control)
COc1cc(Cl)cc(N2C(=O)C3C4C[C@H](F)CN4C4(C(=O)Nc5c(Cl)cc(Cl)cc54)C3C2=O)c1 (single isomer, unassigned) [Example 110] | +++ (NAUC “+++” refers to an observed NAUC >170% of positive control) | +++ (NAUC “+++” refers to an observed NAUC >170% of positive control)
O=C1C2C3C4OC4CN3C3(C(=O)Nc4c(Cl)cc(Cl)cc43)C2C(=O)N1c1cc(Cl)cc(Cl)c1 (stereo not shown) [Example 94] | ++ (NAUC “++” refers to an observed NAUC 170-140% of positive control) | +++ (NAUC “+++” refers to an observed NAUC >170% of positive control)
O=C1C2C3CCCN3C3(C(=O)Nc4c(Cl)cc(Cl)cc43)C2C(=O)N1c1cc(Cl)c(OC(F)F)c(Cl)c1 (single isomer, unassigned) [Example 250] | +++ (NAUC “+++” refers to an observed NAUC >170% of positive control) | +++ (NAUC “+++” refers to an observed NAUC >170% of positive control)
O=C1C2C3CC4(CC4)CN3C3(C(=O)Nc4c(Cl)cc(Cl)cc43)C2C(=O)N1c1cc(Cl)cc(Cl)c1 (stereo not shown) [Example 174] | +++ (NAUC “+++” refers to an observed NAUC >170% of positive control) | +++ (NAUC “+++” refers to an observed NAUC >170% of positive control)
O=C(O)CC1NC2(C(=O)Nc3c(Cl)cc(Cl)cc32)C2C(=O)N(c3cc(Cl)cc(Cl)c3)C(=O)C12 (stereo not shown) [Example 157] | +++ (NAUC “+++” refers to an observed NAUC >170% of positive control) | + (NAUC “+” refers to an observed NAUC <140% of positive control)
O=C1C2C3CC(=C(F)F)CN3C3(C(=O)Nc4c(Cl)cc(Cl)cc43)C2C(=O)N1c1cc(Cl)cc(Cl)n1 (stereo not shown) [Example 122] | +++ (NAUC “+++” refers to an observed NAUC >170% of positive control) | + (NAUC “+” refers to an observed NAUC <140% of positive control)
[2H]C([2H])([2H])C1(C([2H])([2H])[2H])CC2C3C(=O)N(c4cc(Cl)cc(Cl)c4)C(=O)C3C3(C(=O)Nc4c(Cl)cc(Cl)cc43)N2C1 (stereo not shown) [Example 185] | +++ (NAUC “+++” refers to an observed NAUC >170% of positive control) | +++ (NAUC “+++” refers to an observed NAUC >170% of positive control)
COc1cc(Cl)cc(N2C(=O)C3C4C[C@](C)(F)CN4C4(C(=O)Nc5c(Cl)cc(Cl)cc54)C3C2=O)c1 (single isomer, unassigned) [Example 254] | +++ (NAUC “+++” refers to an observed NAUC >170% of positive control) | +++ (NAUC “+++” refers to an observed NAUC >170% of positive control)
COc1c(Cl)cc(N2C(=O)C3C4C[C@H](Cl)CN4C4(C(=O)Nc5c(Cl)cc(Cl)cc54)C3C2=O)cc1Cl (single isomer, unassigned) [Example 114] | +++ (NAUC “+++” refers to an observed NAUC >170% of positive control) | +++ (NAUC “+++” refers to an observed NAUC >170% of positive control)
O=C1C2C3CCCN3C3(C(=O)Nc4c(C(F)(F)F)cccc43)C2C(=O)N1c1cc(Cl)cc(Cl)c1 (stereo not shown) [Example 18] | ++ (NAUC “++” refers to an observed NAUC 170-140% of positive control) | + (NAUC “+” refers to an observed NAUC <140% of positive control)
CC(=O)O[C@H]1CC2C3C(=O)N(c4cc(Cl)cc(Cl)c4)C(=O)C3C3(C(=O)N(C(C)=O)c4c(Cl)cc(Cl)cc43)N2C1 (stereo partly shown) [Example 69] | +++ (NAUC “+++” refers to an observed NAUC >170% of positive control) | + (NAUC “+” refers to an observed NAUC <140% of positive control)
O=C1C2C3CCCN3C3(C(=O)Nc4ccc(C(F)(F)F)cc43)C2C(=O)N1c1cc(Cl)cc(Cl)n1 (stereo not shown) [Example 102] | + (NAUC “+” refers to an observed NAUC <140% of positive control) | ++ (NAUC “++” refers to an observed NAUC 170-140% of positive control)
O=C1C2C3CC(=C(F)F)CN3C3(C(=O)Nc4c(Cl)cc(Cl)cc43)C2C(=O)N1c1cc(Cl)cc(Cl)c1 (single isomer, unassigned) [Example 116] | +++ (NAUC “+++” refers to an observed NAUC >170% of positive control) | +++ (NAUC “+++” refers to an observed NAUC >170% of positive control)
O=C1C2C3C[C@H](Cl)CN3C3(C(=O)Nc4c(Cl)cc(Cl)cc43)C2C(=O)N1c1cc(Cl)cc(Cl)n1 (stereo partly shown) [Example 65] | ++ (NAUC “++” refers to an observed NAUC 170-140% of positive control) | +++ (NAUC “+++” refers to an observed NAUC >170% of positive control)
O=C1C2C3CCCN3C3(C(=O)Nc4c(F)cc(Cl)cc43)C2C(=O)N1c1cc(F)cc(Cl)c1 (stereo not shown) [Example 37] | + (NAUC “+” refers to an observed NAUC <140% of positive control) | ++ (NAUC “++” refers to an observed NAUC 170-140% of positive control)
COc1c(Cl)cc(N2C(=O)C3C4C[C@](C)(O)CN4C4(C(=O)Nc5c(Cl)cc(Cl)cc54)C3C2=O)cc1Cl (stereo partly shown) [Example 159] | +++ (NAUC “+++” refers to an observed NAUC >170% of positive control) | +++ (NAUC “+++” refers to an observed NAUC >170% of positive control)
COc1cc(Cl)cc(N2C(=O)C3C4C[C@H](F)CN4C4(C(=O)Nc5c(Cl)cc(Cl)cc54)C3C2=O)c1 (single isomer, unassigned) [Example 6, (7′S)-5,7-Dichloro-2′-(3-chloro-5-methoxyphenyl)-7′-fluoro-3a′,6′,7′,8′,8a′,8b′-hexahydro-1′H-spiro[indoline-3,4′-pyrrolo[3,4-a]pyrrolizine]-1′,2,3′(2′H)-trione] | +++ (NAUC “+++” refers to an observed NAUC >170% of positive control) | +++ (NAUC “+++” refers to an observed NAUC >170% of positive control)
O=C1C2C(Cc3ccccn3)NC3(C(=O)Nc4c(Cl)cc(Cl)cc43)C2C(=O)N1c1cc(Cl)cc(Cl)c1 (stereo not shown) [Example 203] | ++ (NAUC “++” refers to an observed NAUC 170-140% of positive control) | ++ (NAUC “++” refers to an observed NAUC 170-140% of positive control)

From patent US10072017B2, “Compounds and methods for the treatment of cystic fibrosis” (Flatley Discovery Lab, LLC, priority 2015, dated 2018)
